In one series the test system is GBM12 GSCs. As to the kind of experiment: Cell cycle profile of GBM-derived GSC spheres (flow cytometry). It counts as cell-based, human. Conditions: 0.25% GTA in SCM for 24 hours; all GSCs except GBM8. How it is done:
(§1) Cell cycle profiles were visualized by propidium iodide (PI) staining as previously described (Perez-Martinez & Jaworski (2005) J Neurosci 25:4917-29). OG35, OG33 and mouse neural stem cells were grown in stem cell medium (SCM; DMEM/F12, B27, 20 ng/ml ea bFGF & EGF) while the oligodendrocyte progenitor cell line, Oli-neu (Jung et al. (1995) Eur J Neurosci 7:1245-65) was grown in Sato's medium (DMEM supplemented with 100 μg/ml apotransferrin, 5 μg/ml insulin, 60 nM triiodothyronine, 30 nM sodium selenite, 100 μM putrescine, 1% horse serum, and 25 μg/ml G418). […] after 0.25% (v/v) GTA treatment, cells were trypsinized, recovered by centrifugation, re-suspended (10^6 cells/ml) in a low-salt PI solution ([…] polyethylene glycol PEG 8000, […], 180 U/ml RNase A, 0.1% Triton X-100, and 4 mM sodium citrate), and incubated at 37° C. for 20 minutes. After addition of an equal volume of high-salt PI solution ([…] polyethylene glycol PEG 8000, […], 180 U/ml RNase A, 0.1% Triton X-100, and 400 mM NaCl) and incubation at 4° C. for 1 hour, cell cycle profiles were recorded by flow cytometry (BD LSR 11 Flow Cytometer, BD Biosciences; Franklin Lakes, N.J.).
(§2) Flow cytometry was performed 24 hours after GTA treatment as described in prior examples herein.

Another series deals with GBM8 GSCs. The description is as above. Type of series: cell-based, human. The conditions noted are these: 0.25% GTA in SCM for 24 hrs. The protocol: as §1, §2
The conditions of series [1]: acetate supplementation in children with Canavan Disease; cited from earlier work.
Series [2] relates to OG33 oligodendroglioma stem cells. The experiment in a line: Growth dynamics, unbiased trypan blue exclusion based cytometry. It counts as cell-based, human. The conditions noted are these: 0.25% GTA, 5 days of treatment. How it is done:
(§3) Growth dynamics were assessed using unbiased trypan blue exclusion based cytometry. Cells were plated (at 10,000 cells per well of a 24-well plate) directly in the absence or presence of 0.25% GTA. After 1, 3, and 5 days of treatment, cells were typsinized, collected via centrifugation, and counted according to the manufacturer's instructions (Countess Automated Cell Counter; Invitrogen Life Technologies; Carlsbad, Calif.).

Series [3] deals with OG35 oligodendroglioma stem cells. The description is as above. Type of series: cell-based, human. Conditions: 0.25% GTA, 5 days of treatment. How it is done:
as §3

In series [4] the test system is Oli-Neu cells, an oligodendrocyte progenitor cell (OPC) line. As to the kind of experiment: Cell cycle profile by propidium iodide staining and flow cytometry. Conditions: 0.25% GTA for 24 hours; Sato's medium; compared with GSCs. It counts as cell-based, murine. The protocol: as §1
In general terms: Flow cytometry measures light scatter and fluorescence of single cells or particles in a stream.

The test system of series [5] is murine neural stem cells (NSCs). The description is as above. It counts as cell-based. Conditions: 0.25% GTA in SCM for 24 hours. The protocol: as §1
Series [6] concerns OG35 oligodendroglioma GSCs. As to the kind of experiment: Orthotopic graft in athymic mice, survival and bioluminescent imaging. Type of series: in vivo. The conditions noted are these: OG35 engrafted mice. How it is done:
Cells (2,500 cells in 4 μl) were injected into the right striatum (1 mm anterior, 1.5 mm lateral to bregma, 3.5 mm deep) of adult athymic mice (8-week-old, 25-28 g). […]
For in vivo imaging, mice were injected i.p. with 150 mg/kg D-luciferin potassium salt 5 minutes prior to imaging under 1.5% inhaled isoflurane. Peak efflux was determined from an average of 15 bioluminescent acquisitions, with 1 min inter-acquisition intervals, using the auto-exposure setting. Total photon efflux was determined by drawing regions of interest over the emitted region and setting thresholds for each mouse to maximize the number of pixels encircled using Living Image acquisition and analysis software (Version 3.0.3.5, Caliper Life Sciences, Hopkinton, Mass.). […]
Tumor bioluminescence (rate of flux change over time) and tumor volume were compared using a Mann-Whitney test. Survival was analyzed using Kaplan-Meier curves [Kaplan, EL and P Meier. (1958) J Am Stat Assoc 53:457-481] and comparisons between groups were analyzed with a log-rank test [Peto, R and J Peto. […]

Take `CC(=O)OCC(COC(C)=O)OC(C)=O` [GTA, glyceryltriacetate]: in the series on GBM12 GSCs, the “Growth arrest (increased proportion of cells in G0/G1 and decreased proportion in S phase)” value is given as “exerted growth arrest”. Besides, the Growth arrest entry in the series on GBM8 GSCs is given as “did not induce growth arrest”. Further, the Adverse effects result in series [1] is reported as “without any adverse effects”. The Cell number entry in series [2] and in series [3] was “significantly decreased cell number” throughout. The values for the Cell cycle arrest result in series [4] and in series [5] were “less effect” and “no effect”, respectively. Besides, in series [6] (GTA alone 5.8 g/kg intragastrically daily), the Survival entry is listed as “did not significantly increase survival”. Moreover, in series [6] (GTA with TMZ, bioluminescent imaging), the “Time to tumor regrowth after termination of TMZ treatment” value is reported as “significantly delayed”.
